Tests used:
albumin = experiment: Albumin coagulation, optic density on photoelectric calorimeter; type: biochemical; settings: for coagulation of the protein (in words): albumin solution
Method: In the coagulation studies, albumin was used for the protein.
In the table, the calculated concentrations of the substances being investigated are listed.
One (1) ml of the tannin solution was put into the test-tube. One (1) ml of the albumin solution was added. 5 ml of water were added. The mixture was shaken. An optic density of the solution was determined on KΦK-2(photoelectric calorimeter) when Δ=260 nm, in cuvette=1 cm in 5, 10, 15, 20, 25 min.
Each weight was repeated three times and the optical density measured.
In addition, the control experiment was conducted with 1 ml of the albumin solution, 0.001 g of potassium iodide, 5 ml of water.

[1] = tested on: metastatic melanoma-affected patients
Method: The melanoma-affected patients are treated as follows. […] The treatment course spans 15 to 20 intravenous infusions. When a positive dynamic is achieved, the treatment course is followed until the pronounced effect is produced.
Along with an estimated rate of objected responses of therapeutical measures, a comparison was made between such indexes as the quality of life, endurability of therapeutic treatment, and total survivability. The study included the patients of the age period between 18-75 with histologically confirmed diagnoses of skin related melanomas. None of the patients had yet gone through chemotherapy. […] The treatment process continued to the point where the disease started progressing or side-effects developed that required the therapeutic measures to be terminated.
Dacarbazine in a dose of 2500 mg/mL was prescribed in a form of infusion that lasted sixty minutes (60 min.), once a day during successive five days, every four weeks on the 1-5 and 29-33rd days respectively. Repeated courses were carried out only in the patients whose progressing disease was not recorded.

[2] = reaction with PSA; cited from earlier work
[3] = treated patients, hematological side-effect

Structure (SMILES)	optic density (albumin; 0.001 g of potassium iodide added to the tannin/albumin solution)	coagulation of the protein (in words) (albumin)	optic density (albumin; another 0.001 g of potassium iodide added to the tannin/albumin solution)	turbidity in the solution (albumin; control: 1 ml albumin solution, 0.001 g potassium iodide, 5 ml water, one hour later)	frequency of objective responses ([1]; melanoma patients, responses recorded in skin-based metastatic melanomas) [%]	neuropenia recorded [1, 3]	trombocytopenia recorded [1, 3]	optic density d5 (albumin; 1 ml tannin solution + 1 ml albumin solution + 5 ml water, 260 nm, 1 cm cuvette, 5 min)	optic density d10 (albumin; same mixture, 10 min)	optic density d20 (albumin; same mixture, 20 min)	optic density d25 (albumin; same mixture, 25 min)	period of precipitation for the reaction (albumin; tannin + albumin) [min]	moles of N-acetylneuraminic acid sedimented by each mole of tannic acid [2]
[I-].[K+] [potassium iodide]	0.87	did not possess coagulating capacity	0.92	no turbidity									
CN(C)/N=N/c1[nH]cnc1C(N)=O [dacarbazine]					23	14 % of observations	57 % of the patients						
O=C(OC[C@H]1O[C@@H](OC(=O)c2cc(O)c(O)c(OC(=O)c3cc(O)c(O)c(O)c3)c2)[C@H](OC(=O)c2cc(O)c(O)c(OC(=O)c3cc(O)c(O)c(O)c3)c2)[C@@H](OC(=O)c2cc(O)c(O)c(OC(=O)c3cc(O)c(O)c(O)c3)c2)[C@@H]1OC(=O)c1cc(O)c(O)c(OC(=O)c2cc(O)c(O)c(O)c2)c1)c1cc(O)c(O)c(OC(=O)c2cc(O)c(O)c(O)c2)c1 [tannin, tannic acid]		No coagulation						0.11	0.16	0.19	0.19	20	three

— patent US20130108713A1 (RYAOMA, INC., priority 2008, published 2013)
